In US9051351B2, “Hepatocyte growth factor mimics as therapeutic agents” (Washington State University, priority 2011, dated 2015):
Entries after “also recorded” stand apart in the source; their conditions may differ. Where a SMILES comes first, the peptide text is derived from it. [ ]: non-standard residue; d: D form. The star is where a group is joined. Hexanoyl = CCCCCC(=O)*; Ahx = NCCCCCC(=O)O

Legend:
hippocampal neurons [1] = test: Spine head width in mRFP-β-actin transfected hippocampal neurons; type: cell-based, rat; conditions: 10^−12 M, 5 days
Excerpt: Neurons were transfected with mRFP-β-actin on day in vitro 6 […] using LipofectAMINE™ 2000 (Invitrogen) according to the manufacturer's protocol. This protocol yielded the desired 3-5% transfection efficiency thus enabling the visualization of individual neurons. Higher efficiencies obscured the dendritic arbor of individual neurons. Expression of fluorescently tagged actin allowed clear visualization of dendritic spines, as dendritic spines are enriched in actin. On DIV7 the cells were treated with vehicle (H2O) or peptides (as described in the text) added to media. […] Slides were dried for at least 20 hours at 4° C. and fluorescent images were obtained with Slidebook 4.2 Digital Microscopy Software driving an Olympus IX81 inverted confocal microscope with a 60× oil immersion lens, NA 1.4 and resolution 0.280 μm Dendritic spine density was measured on primary and secondary dendrites at a distance of at least 150 μm from the soma. Five 50 μm long segments of dendrite from at least 10 neurons per data point were analyzed for each data point reported. […] Dendrite length was determined using the National Institutes of Health's Image J 1.41o program (NIH, Bethesda, Md.) and the neurite tracing program Neuron J (Meijering, Jacob et al. 2004) Spines were manually counted. […]

CA1 hippocampal neurons = test: Spinogenesis in organotypic hippocampal slice cultures; type: cell-based, rat; conditions: 10^−12 M Nle1-AngIV or Dihexa, 10 ng/ml HGF; 2 days
Method: (§1) Hippocampi from P4 Sprague Dawley rats were cultured as previously described (Wayman, hnpey et al. 2006). Briefly, 400 μm slices were cultured on (Milipore, Billerica, Mass.) for 3 days after which they were biolistically transfected with tomato fluorescent protein (TFP) using a Helios Gen Gun (BioRad, Hercules, Calif.), according to the manufacturer's protocol, to visualize dendritic arbors. Following a 24 hour recovery period slices were stimulated with vehicle (H2O), 1 pM Nle1-AngIV or Dihexa for 2 days. Slices were fixed and mounted. Hippocampal CA1 neuronal processes were imaged and measured as described above.
as §1, with “Impey” for “hnpey”, “Gene” for “Gen”, “with” for “with vehicle (H2O),”, “Slices were fixed and mounted.” left out
Hippocampi from P4 Sprague Dawley rats were cultured as previously described (Wayman, Impey et al. 2006). […] Hippocampal CA1 neuronal processes were imaged and measured as described above.

hippocampal neurons [2] = test: Growth factor deprivation of dissociated hippocampal neurons; type: cell-based; conditions: starved 72 hrs +/− HGF 5 ng/ml and/or Dihexa
Method: FIG. 46. […] Dissociated hippocampal neurons were starved for 72 hrs+/−HGF at sub-threshold concentrations 5 ng/ml and or Dihexa at 2 different concentrations 10^−8M and […]. (**p<0.001,*** p<0.0001; Mean+/−SEM).

in vitro = conditions: male, rat, microsomes, pH 7.38

Question: What does the source list for CCCCCC(=O)N[C@@H](Cc1ccc(O)cc1)C(=O)N[C@H](C(=O)NCCCCCC(N)=O)[C@@H](C)CC [Dihexa, N-hexanoic-Tyr-Ile-(6)-aminohexanoic amide] (Hexanoyl-Tyr-Ile-[Ahx]-NH2)?
Answer: spine head width (hippocampal neurons [1]): 0.80 μm; spines per 50 μm dendrite length in CA1 hippocampal neurons (CA1 hippocampal neurons): 11 spines per 50 μm dendrite length; protection of neurons from growth factor deprivation (hippocampal neurons [2]): act synergistically to protect neurons; also recorded: protects neurons from growth factor deprivation; half-life at 5 µM (in vitro): 8.49 h; microsomal CLint at 5 µM (in vitro): 2.72 µL/min/mg
